Source: ChEMBL document CHEMBL1268965, “Synthesis and antifungal activity of a novel series of 13-(4-isopropylbenzyl)berberine derivatives” (Bioorg Med Chem Lett, 2010)
Values after ≈ are worked out from the molar mass of the structure shown.

How the values were obtained:
Candida albicans = assay: Antifungal activity against Candida albicans ATCC 10231 after 24 hrs by two fold serial dilution method; format: functional; settings: ATCC 10231, 24 h
Candida tropicalis = assay: Antifungal activity against Candida tropicalis ATCC 13803 after 24 hrs by two fold serial dilution method; format: functional; settings: ATCC 13803, 24 h
Clavispora lusitaniae = assay: Antifungal activity against Candida lusitaniae ATCC 42720 after 24 hrs by two fold serial dilution method; format: functional; settings: ATCC 42720, 24 h
Pichia kudriavzevii = assay: Antifungal activity against Candida krusei ATCC 6258 after 24 hrs by two fold serial dilution method; format: functional; settings: ATCC 6258, 24 h
Aspergillus fumigatus = assay: Antifungal activity against Aspergillus fumigatus ATCC 16424 after 24 hrs by two fold serial dilution method; format: functional; settings: ATCC 16424, 24 h
Aspergillus terreus = assay: Antifungal activity against Aspergillus terreus ATCC 46941 after 24 hrs by two fold serial dilution method; format: functional; settings: ATCC 46941, 24 h
Cryptococcus neoformans = assay: Antifungal activity against Cryptococcus neoformans ATCC 36556 after 24 hrs by two fold serial dilution method; format: functional; settings: ATCC 36556, 24 h
Mus musculus [1] = assay: Toxicity ICR mouse assessed as mortality at 33 to 900 mg/kg, po after 7 days; format: organism-based; set-up: dose 33-900 mg/kg, route oral; settings: in vivo, 168 h
[2] = Toxicity in po dosed ICR mouse after 7 days; format: organism-based; settings: in vivo
Mus musculus [3] = assay: Toxicity ICR mouse assessed as appearance of clinical signs at 33 to 900 mg/kg, po after 7 days; format: organism-based; set-up: dose 33-900 mg/kg, route oral; settings: in vivo, 168 h
Mus musculus [4] = assay: Toxicity ICR mouse assessed as effect on body weight at 33 to 900 mg/kg, po after 7 days; format: organism-based; set-up: dose 33-900 mg/kg, route oral; settings: in vivo, 168 h
Mus musculus [5] = assay: Toxicity ICR mouse assessed as effect on internal organ morphology at 33 to 900 mg/kg, po after 7 days by microscopy; format: organism-based; set-up: dose 33-900 mg/kg, route oral; settings: in vivo, 168 h

SMILES	MIC (Candida albicans) [µg/mL]	MIC (Candida tropicalis) [µg/mL]	MIC (Clavispora lusitaniae) [µg/mL]	MIC (Pichia kudriavzevii) [µg/mL]	MIC (Aspergillus fumigatus) [µg/mL]	MIC (Aspergillus terreus) [µg/mL]	MIC (Cryptococcus neoformans) [µg/mL]	Activity (Mus musculus [1])	LD50 at 168 h [2] [mg/kg]	Activity (Mus musculus [3])	Activity (Mus musculus [4])	Activity (Mus musculus [5])
COc1ccc2c(Cc3ccc(C(C)C)cc3)c3[n+](cc2c1OCc1ccccc1)CCc1cc2c(cc1-3)OCO2.[Cl-]	4	4	4	4	64	32	4	–	–	–	–	–
COc1ccc2c(Cc3ccc(C(C)C)cc3)c3[n+](cc2c1OCc1ccc(C(C)C)cc1)CCc1cc2c(cc1-3)OCO2.[Cl-]	1	1	1	2	4	8	2	–	–	–	–	–
COc1ccc2c(Cc3ccc(C(C)C)cc3)c3[n+](cc2c1OCc1ccc(C(C)(C)C)cc1)CCc1cc2c(cc1-3)OCO2.[Cl-]	1	1	1	4	4	8	2	–	–	–	–	–
COc1ccc2c(Cc3ccc(C(C)C)cc3)c3[n+](cc2c1OCc1ccc(C(F)(F)F)cc1)CCc1cc2c(cc1-3)OCO2.[Cl-]	2	2	2	4	16	16	4	–	–	–	–	–
COc1ccc2c(Cc3ccc(C(C)C)cc3)c3[n+](cc2c1OCc1ccc(OC(F)(F)F)cc1)CCc1cc2c(cc1-3)OCO2.[Cl-]	2	2	2	4	32	16	4	–	–	–	–	–
COc1ccc2c(Cc3ccc(C(C)C)cc3)c3[n+](cc2c1OCc1cc(F)c(F)c(F)c1)CCc1cc2c(cc1-3)OCO2.[Cl-]	4	4	4	4	32	32	4	–	–	–	–	–
COc1ccc2c(Cc3ccc(C(C)C)cc3)c3[n+](cc2c1OC(C)(C)C)CCc1cc2c(cc1-3)OCO2.[Cl-]	4	1	1	4	32	32	4	–	–	–	–	–
COc1ccc2c(Cc3ccc(C(C)C)cc3)c3n(cc-2c1=O)CCc1cc2c(cc1-3)OCO2	16 (≈ 35.3 µM)	16 (≈ 35.3 µM)	16 (≈ 35.3 µM)	16 (≈ 35.3 µM)	> 128	> 128	4 (≈ 8.82 µM)	–	–	–	–	–
CCCCOc1c(OC)ccc2c(Cc3ccc(C(C)C)cc3)c3[n+](cc12)CCc1cc2c(cc1-3)OCO2.[Cl-]	0.5	0.25	0.25	1	2	4	1	Non-toxic	900	Non-toxic	Non-toxic	Non-toxic
C[C@@H]1[C@H](O)[C@@H](C)/C=C/C=C/C=C/C=C/C=C/C=C/C=C/[C@H](O[C@@H]2O[C@H](C)[C@@H](O)[C@H](N)[C@@H]2O)C[C@@H]2O[C@](O)(C[C@@H](O)C[C@@H](O)[C@H](O)CC[C@@H](O)C[C@@H](O)CC(=O)O[C@H]1C)C[C@H](O)[C@H]2C(=O)O [AMPHOTERICIN B]	0.5 (≈ 0.541 µM)	0.5 (≈ 0.541 µM)	1 (≈ 1.08 µM)	0.5 (≈ 0.541 µM)	1 (≈ 1.08 µM)	16 (≈ 17.3 µM)	0.25 (≈ 0.271 µM)	–	–	–	–	–

Now from value to compound, other results behind:

MIC (Candida albicans) [µg/mL]	MIC (Candida tropicalis) [µg/mL]	MIC (Clavispora lusitaniae) [µg/mL]	MIC (Pichia kudriavzevii) [µg/mL]	MIC (Aspergillus fumigatus) [µg/mL]	MIC (Aspergillus terreus) [µg/mL]	MIC (Cryptococcus neoformans) [µg/mL]	SMILES	Activity (Mus musculus [1])	LD50 at 168 h [2] [mg/kg]	Activity (Mus musculus [3])	Activity (Mus musculus [4])	Activity (Mus musculus [5])
4	1	1	4	64	32	4	COc1ccc2c(Cc3ccc(C(C)C)cc3)c3[n+](cc2c1OC)CCc1cc2c(cc1-3)OCO2	–	–	–	–	–
0.5	0.5	0.5	1	2	4	1	C/C=C/COc1c(OC)ccc2c(Cc3ccc(C(C)C)cc3)c3[n+](cc12)CCc1cc2c(cc1-3)OCO2.[Cl-]	–	–	–	–	–
16	16	16	16	> 128	> 128	8	COc1ccc2c(Cc3ccc(C(C)C)cc3)c3[n+](cc2c1OC(C)=O)CCc1cc2c(cc1-3)OCO2.[Cl-]	–	–	–	–	–
8	8	8	8	> 128	> 128	4	CCCC(=O)Oc1c(OC)ccc2c(Cc3ccc(C(C)C)cc3)c3[n+](cc12)CCc1cc2c(cc1-3)OCO2.[Cl-]	–	–	–	–	–
1	0.5	0.5	2	4	8	2	CCCOc1c(OC)ccc2c(Cc3ccc(C(C)C)cc3)c3[n+](cc12)CCc1cc2c(cc1-3)OCO2.[Cl-]	–	–	–	–	–
1	1	1	2	8	8	2	C=CCOc1c(OC)ccc2c(Cc3ccc(C(C)C)cc3)c3[n+](cc12)CCc1cc2c(cc1-3)OCO2.[Cl-]	–	–	–	–	–
2	1	1	4	32	16	4	CCC(C)(C)Oc1c(OC)ccc2c(Cc3ccc(C(C)C)cc3)c3[n+](cc12)CCc1cc2c(cc1-3)OCO2.[Cl-]	–	–	–	–	–
2	1	1	2	8	8	2	COc1ccc2c(Cc3ccc(C(C)C)cc3)c3[n+](cc2c1OCCCO)CCc1cc2c(cc1-3)OCO2.[Cl-]	–	–	–	–	–
